Test system: MV-4-11 cells
Test: Gene expression microarray analysis (Affymetrix PrimeView) and GSEA
Format: cell-based, human
Set-up: RFU PODN (11730768_x_at) / Fold change /veh PODN (11730768_x_at) / RFU LINC00158 (11744669_a_at) / Fold change /veh LINC00158 (11744669_a_at) / RFU DUSP10 (11751237_a_at) / Fold change /veh DUSP10 (11751237_a_at) / RFU ID3 (11757404_x_at) / Fold change /veh ID3 (11757404_x_at) / RFU PLEKHG5 (11737974_s_at) / Fold change /veh PLEKHG5 (11737974_s_at) / RFU LRRC4B (11730491_at) / Fold change /veh LRRC4B (11730491_at) / RFU GIMAP4 (11747438_a_at) / Fold change /veh GIMAP4 (11747438_a_at) / RFU KRT8 (11758183_x_at) / Fold change /veh KRT8 (11758183_x_at) / RFU CNN1 (11734310_a_at) / Fold change /veh CNN1 (11734310_a_at) / RFU VPS37D (11726825_at) / Fold change /veh VPS37D (11726825_at) / RFU C10orf10 (11716522_x_at) / Fold change /veh C10orf10 (11716522_x_at) / RFU KIR2DL2 /// KIR2DL4 /// KIR2DL5A /// KIR2DL5B /// KIR2DS1 /// KIR2DS2 /// KIR2DS3 /// KIR2DS4 /// KIR3DL3 /// KIR3DL3 /// KIR3DS1 (11738374_at) / Fold change /veh KIR2DL2 /// KIR2DL4 /// KIR2DL5A /// KIR2DL5B /// KIR2DS1 /// KIR2DS2 /// KIR2DS3 /// KIR2DS4 /// KIR3DL3 /// KIR3DL3 /// KIR3DS1 (11738374_at) / RFU C1QL1 (11718748_at) / Fold change /veh C1QL1 (11718748_at) / RFU TMPRSS4 (11747572_a_at) / Fold change /veh TMPRSS4 (11747572_a_at) / RFU HAMP (11756126_x_at) / Fold change /veh HAMP (11756126_x_at) / RFU RNFT2 (11725882_a_at) / Fold change /veh RNFT2 (11725882_a_at) / RFU NR4A2 (11747474_a_at) / Fold change /veh NR4A2 (11747474_a_at) / RFU ABCC12 (11746883_a_at) / Fold change /veh ABCC12 (11746883_a_at) / RFU TMEM136 (11760407_x_at) / Fold change /veh TMEM136 (11760407_x_at) / RFU CLDN22 /// WWC2 (11732394_at) / Fold change /veh CLDN22 /// WWC2 (11732394_at) / RFU HLA-DPB1 (11760878_x_at) / Fold change /veh HLA-DPB1 (11760878_x_at) / RFU SPINT1 (11716480_a_at) / Fold change /veh SPINT1 (11716480_a_at) / RFU GAP43 (11754022_s_at) / Fold change /veh GAP43 (11754022_s_at) / RFU A4GNT (11735810_at) / Fold change /veh A4GNT (11735810_at) / RFU PRB3 (11715151_x_at) / Fold change /veh PRB3 (11715151_x_at) / RFU TUBB4B (11761932_at) / Fold change /veh TUBB4B (11761932_at) / RFU CAPN14 (11732068_a_at) / Fold change /veh CAPN14 (11732068_a_at) / RFU TMCC2 (11721928_a_at) / Fold change /veh TMCC2 (11721928_a_at) / RFU IRGQ (11745062_a_at) / Fold change /veh IRGQ (11745062_a_at) / RFU FAM174B (11720279_a_at) / Fold change /veh FAM174B (11720279_a_at) / RFU TMPRSS4 (11748680_a_at) / Fold change /veh TMPRSS4 (11748680_a_at) / RFU FAM212B (11763350_a_at) / Fold change /veh FAM212B (11763350_a_at) / RFU PLEKHG5 (11743358_a_at) / Fold change /veh PLEKHG5 (11743358_a_at) / RFU ZSCAN30 (11745921_a_at) / Fold change /veh ZSCAN30 (11745921_a_at) / RFU CMKLR1 (11741424_a_at) / Fold change /veh CMKLR1 (11741424_a_at) / RFU LOC101060620 /// MAPK8IP1 (11723275_at) / Fold change /veh LOC101060620 /// MAPK8IP1 (11723275_at) / RFU SPTSSB (11747773_x_at) / Fold change /veh SPTSSB (11747773_x_at) / RFU PRSS12 (11739890_at) / Fold change /veh PRSS12 (11739890_at) / RFU BIN1 (11741810_x_at) / Fold change /veh BIN1 (11741810_x_at) / RFU WNT11 (11732464_a_at) / Fold change /veh WNT11 (11732464_a_at) / RFU C10orf10 (11716521_a_at) / Fold change /veh C10orf10 (11716521_a_at) / RFU C5orf56 (11738089_at) / Fold change /veh C5orf56 (11738089_at) / RFU CYB561 (11721691_x_at) / Fold change /veh CYB561 (11721691_x_at) / RFU ANKRD19P (11752326_a_at) / Fold change /veh ANKRD19P (11752326_a_at) / RFU OR2T12 /// OR2T33 /// OR2T8 (11738714_s_at) / Fold change /veh OR2T12 /// OR2T33 /// OR2T8 (11738714_s_at) / RFU VCAN (11748164_a_at) / Fold change /veh VCAN (11748164_a_at) / RFU JSRP1 (11732532_at) / Fold change /veh JSRP1 (11732532_at) / RFU KRTAP10-11 (11738290_x_at) / Fold change /veh KRTAP10-11 (11738290_x_at) / RFU MYO3A (11730013_a_at) / Fold change /veh MYO3A (11730013_a_at) / RFU EBF3 (11725865_a_at) / Fold change /veh EBF3 (11725865_a_at) / RFU CAMK2N1 (11719241_x_at) / Fold change /veh CAMK2N1 (11719241_x_at) / RFU C5orf56 (11738088_a_at) / Fold change /veh C5orf56 (11738088_a_at) / RFU OLFML3 (11715873_a_at) / Fold change /veh OLFML3 (11715873_a_at) / RFU LOC100653217 /// NTM (11731650_a_at) / Fold change /veh LOC100653217 /// NTM (11731650_a_at) / RFU MAPK11 (11762145_a_at) / Fold change /veh MAPK11 (11762145_a_at) / RFU FIZ1 (11724087_x_at) / Fold change /veh FIZ1 (11724087_x_at) / RFU OASL (11726364_x_at) / Fold change /veh OASL (11726364_x_at) / RFU SOX15 (11748057_x_at) / Fold change /veh SOX15 (11748057_x_at) / RFU CD79A (11719716_a_at) / Fold change /veh CD79A (11719716_a_at) / RFU HIST1H1D (11736915_at) / Fold change /veh HIST1H1D (11736915_at) / RFU CASKIN2 (11723855_a_at) / Fold change /veh CASKIN2 (11723855_a_at) / RFU LOC730098 (11760151_x_at) / Fold change /veh LOC730098 (11760151_x_at) / RFU OR4N2 (11742367_at) / Fold change /veh OR4N2 (11742367_at) / RFU PRRT2 (11749266_a_at) / Fold change /veh PRRT2 (11749266_a_at) / RFU SNX32 (11753110_a_at) / Fold change /veh SNX32 (11753110_a_at) / RFU CDHR5 (11726645_a_at) / Fold change /veh CDHR5 (11726645_a_at) / RFU RCAN1 (11760418_a_at) / Fold change /veh RCAN1 (11760418_a_at) / RFU FAM167A (11723789_a_at) / Fold change /veh FAM167A (11723789_a_at) / RFU FAM26E (11764081_at) / Fold change /veh FAM26E (11764081_at) / RFU ISYNA1 (11749810_s_at) / Fold change /veh ISYNA1 (11749810_s_at) / RFU ACY1 (11761880_at) / Fold change /veh ACY1 (11761880_at) / RFU 11764098_at / Fold change /veh 11764098_at / RFU SAMD14 (11745864_x_at) / Fold change /veh SAMD14 (11745864_x_at) / RFU NPB (11741838_a_at) / Fold change /veh NPB (11741838_a_at) / RFU TMPRSS6 (11731388_a_at) / Fold change /veh TMPRSS6 (11731388_a_at) / RFU KRTAP10-2 (11738614_at) / Fold change /veh KRTAP10-2 (11738614_at) / RFU ARHGAP8 /// PRR5-ARHGAP8 (11727945_x_at) / Fold change /veh ARHGAP8 /// PRR5-ARHGAP8 (11727945_x_at) / RFU KRTAP5-7 /// NADSYN1 (11734609_at) / Fold change /veh KRTAP5-7 /// NADSYN1 (11734609_at) / RFU RASL12 (11751679_a_at) / Fold change /veh RASL12 (11751679_a_at) / RFU CDKN2B (11736163_a_at) / Fold change /veh CDKN2B (11736163_a_at) / RFU PRF1 (11729649_at) / Fold change /veh PRF1 (11729649_at) / RFU, ZNF638 /// ZNF638-IT1 / Fold change vs veh, ZNF638 /// ZNF638-IT1 / RFU, PANK3 / Fold change vs veh, PANK3 / RFU, SH3YL1 / Fold change vs veh, SH3YL1 / RFU, ZEB2 / Fold change vs veh, ZEB2 / RFU, NRIP1 / Fold change vs veh, NRIP1 / RFU, PTTG1IP / Fold change vs veh, PTTG1IP / RFU, CAPN2 / Fold change vs veh, CAPN2 / RFU, MED14 / Fold change vs veh, MED14 / RFU, SNORA58 / Fold change vs veh, SNORA58 / RFU, C1orf63 / Fold change vs veh, C1orf63 / RFU, LRRFIP1 / Fold change vs veh, LRRFIP1 / RFU, NDUFAF7 / Fold change vs veh, NDUFAF7 / RFU, SLC12A2 / Fold change vs veh, SLC12A2 / RFU, IBTK / Fold change vs veh, IBTK / RFU, ESF1 / Fold change vs veh, ESF1 / Fold change vs veh, TMEM50B / RFU, TAOK1 / Fold change vs veh, TAOK1 / RFU, ACBD3 / Fold change vs veh, ACBD3 / RFU, TMA16 / Fold change vs veh, TMA16 / RFU, RWDD3 / Fold change vs veh, RWDD3 / RFU, BCAT1 / Fold change vs veh, BCAT1 / RFU, EDEM3 / Fold change vs veh, EDEM3 / RFU, TMEM33 / Fold change vs veh, TMEM33 / RFU, WDR75 / Fold change vs veh, WDR75 / RFU, AHCTF1 / Fold change vs veh, AHCTF1 / RFU, TFRC / Fold change vs veh, TFRC / RFU, ZDHHC17 / Fold change vs veh, ZDHHC17 / RFU, NOM1 / Fold change vs veh, NOM1 / RFU, ARL8B / Fold change vs veh, ARL8B / RFU, ZBTB11 / Fold change vs veh, ZBTB11 / RFU, TAMM41 / Fold change vs veh, TAMM41 / RFU, KIAA1704 /// LOC100996395 / Fold change vs veh, KIAA1704 /// LOC100996395 / RFU, ING1 / Fold change vs veh, ING1 / RFU, TRMT61B / Fold change vs veh, TRMT61B / RFU, FUBP3 / Fold change vs veh, FUBP3 / RFU, TP53 / Fold change vs veh, TP53 / RFU, TNKS2 / Fold change vs veh, TNKS2 / RFU, ZFP14 / Fold change vs veh, ZFP14 / RFU, ACTR2 / Fold change vs veh, ACTR2 / RFU, PPP3R1 / Fold change vs veh, PPP3R1 / RFU, PIK3R1 / Fold change vs veh, PIK3R1 / RFU, HNRNPA1 / Fold change vs veh, HNRNPA1 / RFU, RNF170 / Fold change vs veh, RNF170 / RFU, ZNF28 / Fold change vs veh, ZNF28 / RFU, RNGTT / Fold change vs veh, RNGTT / RFU, OGT / Fold change vs veh, OGT / RFU, BRD1 / Fold change vs veh, BRD1 / RFU, MARS / Fold change vs veh, MARS / RFU, ZNF655 / Fold change vs veh, ZNF655 / RFU, FAHD1 / Fold change vs veh, FAHD1 / RFU, BDP1 / Fold change vs veh, BDP1 / RFU, LRRCC1 / Fold change vs veh, LRRCC1 / RFU, ARID1A / Fold change vs veh, ARID1A / RFU, ZNF146 / Fold change vs veh, ZNF146 / RFU, ZNF330 / Fold change vs veh, ZNF330 / RFU, GPN3 / Fold change vs veh, GPN3 / RFU, C9orf123 / Fold change vs veh, C9orf123 / RFU, N4BP2L2 / Fold change vs veh, N4BP2L2 / RFU, ARFIP1 / Fold change vs veh, ARFIP1 / RFU, FAM179B / Fold change vs veh, FAM179B / RFU, BCL10 / Fold change vs veh, BCL10 / RFU, UHRF1BP1L / Fold change vs veh, UHRF1BP1L / RFU, BET1 / Fold change vs veh, BET1 / RFU, CNOT2 / Fold change vs veh, CNOT2 / RFU, ZNF268 / Fold change vs veh, ZNF268 / Fold change vs veh, ZNF507 / RFU, DGCR2 / Fold change vs veh, DGCR2 / RFU, WDSUB1 / Fold change vs veh, WDSUB1 / Fold change vs veh, HSP90B1 /// MIR3652 / RFU, ADSS / Fold change vs veh, ADSS / RFU, GK / Fold change vs veh, GK / RFU, ZNF148 / Fold change vs veh, ZNF148 / RFU, TAF9 / Fold change vs veh, TAF9 / RFU, SLC1A5 / Fold change vs veh, SLC1A5 / RFU, SLMO2 / Fold change vs veh, SLMO2 / RFU, ABCC4 / Fold change vs veh, ABCC4 / RFU, LOC101060439 /// RAP1B / Fold change vs veh, LOC101060439 /// RAP1B / RFU, RFX7 / Fold change vs veh, RFX7 / RFU, GTPBP10 / Fold change vs veh, GTPBP10 / RFU, CNEP1R1 / Fold change vs veh, CNEP1R1 / RFU, BIVM-ERCC5 /// ERCC5 / Fold change vs veh, BIVM-ERCC5 /// ERCC5 / RFU, ILF3 / Fold change vs veh, ILF3 / RFU 11762660_at / Fold change /veh 11762660_at / RFU VCAN (11757783_s_at) / Fold change /veh VCAN (11757783_s_at) / RFU DDX43 (11728927_at) / Fold change /veh DDX43 (11728927_at) / RFU KRT8 (11758188_x_at) / Fold change /veh KRT8 (11758188_x_at) / RFU NKD1 (11759106_at) / Fold change /veh NKD1 (11759106_at) / RFU SRD5A1 (11742802_a_at) / Fold change /veh SRD5A1 (11742802_a_at) / RFU TPSAB1 /// TPSB2 (11721975_s_at) / Fold change /veh TPSAB1 /// TPSB2 (11721975_s_at) / RFU GSTM3 (11746129_a_at) / Fold change /veh GSTM3 (11746129_a_at) / RFU IL23R (11737362_x_at) / Fold change /veh IL23R (11737362_x_at) / RFU TMEM51 (11727254_a_at) / Fold change /veh TMEM51 (11727254_a_at) / RFU PIWIL2 (11732686_x_at) / Fold change /veh PIWIL2 (11732686_x_at) / RFU ORM1 (11744905_x_at) / Fold change /veh ORM1 (11744905_x_at) / RFU CCDC152 (11743942_at) / Fold change /veh CCDC152 (11743942_at) / RFU ECM1 (11717891_a_at) / Fold change /veh ECM1 (11717891_a_at) / RFU IL23R (11748794_a_at) / Fold change /veh IL23R (11748794_a_at) / RFU TNFAIP8L3 (11732012_x_at) / Fold change /veh TNFAIP8L3 (11732012_x_at) / RFU MBOAT4 (11741988_at) / Fold change /veh MBOAT4 (11741988_at) / RFU 11764193_at / Fold change /veh 11764193_at / RFU TMEM53 (11763286_at) / Fold change /veh TMEM53 (11763286_at) / RFU MAGEB2 (11727129_at) / Fold change /veh MAGEB2 (11727129_at) / RFU TMEM200A (11744735_a_at) / Fold change /veh TMEM200A (11744735_a_at) / RFU CCDC152 (11751479_a_at) / Fold change /veh CCDC152 (11751479_a_at) / RFU FAM211A (11726209_a_at) / Fold change /veh FAM211A (11726209_a_at) / RFU RGS16 (11746705_a_at) / Fold change /veh RGS16 (11746705_a_at) / RFU VCAN (11755009_s_at) / Fold change /veh VCAN (11755009_s_at) / RFU RHOB (11743442_s_at) / Fold change /veh RHOB (11743442_s_at) / RFU RGS16 (11720943_a_at) / Fold change /veh RGS16 (11720943_a_at) / RFU RGS16 (11720944_at) / Fold change /veh RGS16 (11720944_at) / RFU, VPS4B / Fold change vs veh, VPS4B / RFU, CREB1 / Fold change vs veh, CREB1 / RFU, DNAJC13 / Fold change vs veh, DNAJC13 / RFU, GNAQ / Fold change vs veh, GNAQ / RFU, CDK5R1 / Fold change vs veh, CDK5R1 / RFU, ZRANB3 / Fold change vs veh, ZRANB3 / RFU, CUL4A / Fold change vs veh, CUL4A / RFU, CCNY / Fold change vs veh, CCNY / RFU, UFL1 / Fold change vs veh, UFL1 / RFU, COG3 / Fold change vs veh, COG3 / RFU, DIAPH2 / Fold change vs veh, DIAPH2 / RFU, SKA2 / Fold change vs veh, SKA2 / RFU, AFF3 / Fold change vs veh, AFF3 / RFU, LMF1 / Fold change vs veh, LMF1 / RFU, IPO11 / Fold change vs veh, IPO11 / RFU, DFFB / Fold change vs veh, DFFB / RFU, FOXP1 / Fold change vs veh, FOXP1 / RFU, CARD8 / Fold change vs veh, CARD8 / RFU, STRN3 / Fold change vs veh, STRN3 / RFU, ADK / Fold change vs veh, ADK / RFU, RASSF2 / Fold change vs veh, RASSF2 / RFU, WIPF1 / Fold change vs veh, WIPF1 / RFU, LARP1B / Fold change vs veh, LARP1B / RFU, RASA1 / Fold change vs veh, RASA1 / RFU, RB1 / Fold change vs veh, RB1 / RFU, PPFIA1 / Fold change vs veh, PPFIA1 / RFU, MAT2A / Fold change vs veh, MAT2A / RFU, CCT5 / Fold change vs veh, CCT5 / RFU, WDR92 / Fold change vs veh, WDR92 / RFU, CUX1 / Fold change vs veh, CUX1 / RFU, TTC7A / Fold change vs veh, TTC7A / RFU, TMEM135 / Fold change vs veh, TMEM135 / RFU, DEPTOR / Fold change vs veh, DEPTOR / RFU, CPM / Fold change vs veh, CPM / RFU, DNAJB6 / Fold change vs veh, DNAJB6 / RFU, CACNA2D3 / Fold change vs veh, CACNA2D3 / RFU, DTX4 / Fold change vs veh, DTX4 / RFU, TFCP2 / Fold change vs veh, TFCP2 / RFU, GMCL1 /// GMCL1P1 / Fold change vs veh, GMCL1 /// GMCL1P1 / RFU, AEBP2 / Fold change vs veh, AEBP2 / RFU, SNHG1 /// SNORD22 /// SNORD25 /// SNORD26 /// SNORD27 /// SNORD28 /// SNORD29 /// SNORD31 / Fold change vs veh, SNHG1 /// SNORD22 /// SNORD25 /// SNORD26 /// SNORD27 /// SNORD28 /// SNORD29 /// SNORD31 / Fold change (Aza/veh), C12orf56 (ProbeSet 11735607_a_at) / Fold change (ACY-1035/veh), C12orf56 (ProbeSet 11735607_a_at) / Fold change (Aza/veh), FGFR1OP (ProbeSet 11751329_s_at) / Fold change (ACY-1035/veh), FGFR1OP (ProbeSet 11751329_s_at) / Fold change (Aza/veh), VPS36 (ProbeSet 11739960_a_at) / Fold change (ACY-1035/veh), VPS36 (ProbeSet 11739960_a_at) / RFU SYPL1 (11715823_x_at) / Fold change /veh SYPL1 (11715823_x_at) / RFU IGFBP7 (11715501_s_at) / Fold change /veh IGFBP7 (11715501_s_at) / RFU REEP3 (11722064_at) / Fold change /veh REEP3 (11722064_at) / RFU IGLL1 (11728026_x_at) / Fold change /veh IGLL1 (11728026_x_at): dose or concentration left out as unconfirmed
Settings: MV-4-11 cells, 48 hours

Nc1ncn([C@@H]2O[C@H](CO)[C@@H](O)[C@H]2O)c(=O)n1 [azacitidine]
Fold change /veh CASKIN2 (11723855_a_at): 1.13

From article PMC5218480 (PLoS ONE, 2017)
